From publication PMC6886544

Tests used:
EGFR-L858R [1] = target: T1, EGFR-L858R (Homo sapiens, UniProt P00533, L858R); assay: Kinetic characterization (Ki, kinact), EGFR-L858R
Caco-2 assay = assay type: in vitro ADME; settings: human
Method: For Caco-2 cell assay, a 10 mM DMSO stock of the compound was diluted to a final concentration of 5 μM in HBSS buffer pH 7.4 and incubated for 2 hours at 37 °C and 5% CO2 on a monolayer of Caco-2 cells (ATCC) that had been grown on a transwell membrane (Millipore, Schwalbach, Germany) for 21 days. The compound concentration was measured in the receiver as well as the donor well. Apparent permeability (Papp) from either the apical to basolateral direction or vice versa […]
is the donor drug concentration at t = 0, and dQ/dt is the amount of drug transported within the given time period of 2 hours. […]

EGFR-T790M [2] = target: T2, EGFR-T790M (Homo sapiens, UniProt P00533, T790M); assay: Mass spectrometry analysis of covalent bond formation; assay type: binding; parameters: made in house; host or cells: Sf9 insect cells (BacMagic system); settings: EGFR-T790M incubated with inhibitor on ice for 1 h
Source text: captured and quantified using a FUJI LAS3000 system with Science Lab 2001 ImageGauge 4.0 software (Fujifilm Medial Systems, Stamford CT, USA).
Rabbit antibodies specific for phospho-EGFR (Tyr1045), EGFR, Akt, phospho-Akt (Ser473), p42/44 mitogen-activated protein kinase (MAPK), phospho-p44/42 MAPK (Thr202/Tyr204), S6 ribosomal protein, phospho-S6 ribosomal protein (Ser235/236), mouse anti-β-actin antibody as well as HRP-conjugated anti-rabbit and anti-mouse secondary antibodies were purchased from Cell Signaling (Frankfurt, Germany; Beverly, MA).
Mass spectrometry experiments.
We used the drug-resistant mutant EGFR-T790M variant for MS experiments. We incubated a […]
glycerol, 1 mM TCEP, pH 8) on ice for 1 h. We analyzed the aliquots by ESI-MS using an Thermo Fisher Scientific Dionex UltiMate 3000 HPLC system connected to a Thermo Fisher Scientific Velos Pro (2d ion trap). Therefore, 5 μL of sample was injected and separated using a Vydac 214TP C4 5 μm column (150 mm x 2.1 mm) starting at 20% of solvent B for 5 minutes followed by a gradient up to 90% of solvent B over 14 min with a flow rate of 210 μL/min with 0.1% TFA in water as solvent A and 0.1% TFA in MeCN as solvent B. A mass range of 700 to 2000 m/z was scanned and raw data was deconvoluted and analyzed with MagTran software (Z.Q. Zhang, A.G. […]
Target sequence in this assay (P00533 712-979 T790M limits assumed): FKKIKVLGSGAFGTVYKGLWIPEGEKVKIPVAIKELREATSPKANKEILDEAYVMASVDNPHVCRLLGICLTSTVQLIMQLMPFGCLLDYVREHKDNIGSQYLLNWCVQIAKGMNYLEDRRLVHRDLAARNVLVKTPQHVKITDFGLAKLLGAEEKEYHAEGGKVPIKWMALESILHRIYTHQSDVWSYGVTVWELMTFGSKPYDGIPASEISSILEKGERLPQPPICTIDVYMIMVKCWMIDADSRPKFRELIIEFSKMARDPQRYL

Plasma stability, mouse = assay type: in vitro ADME; settings: 5 µM, 1 h, 37 °C
LCK = LCK (Homo sapiens, UniProt P06239); assay: SelectScreen kinase profiling, LCK; assay type: biochemical; settings: mean ± SD of one measurement in duplicates
Sequence of LCK (P06239 whole entry): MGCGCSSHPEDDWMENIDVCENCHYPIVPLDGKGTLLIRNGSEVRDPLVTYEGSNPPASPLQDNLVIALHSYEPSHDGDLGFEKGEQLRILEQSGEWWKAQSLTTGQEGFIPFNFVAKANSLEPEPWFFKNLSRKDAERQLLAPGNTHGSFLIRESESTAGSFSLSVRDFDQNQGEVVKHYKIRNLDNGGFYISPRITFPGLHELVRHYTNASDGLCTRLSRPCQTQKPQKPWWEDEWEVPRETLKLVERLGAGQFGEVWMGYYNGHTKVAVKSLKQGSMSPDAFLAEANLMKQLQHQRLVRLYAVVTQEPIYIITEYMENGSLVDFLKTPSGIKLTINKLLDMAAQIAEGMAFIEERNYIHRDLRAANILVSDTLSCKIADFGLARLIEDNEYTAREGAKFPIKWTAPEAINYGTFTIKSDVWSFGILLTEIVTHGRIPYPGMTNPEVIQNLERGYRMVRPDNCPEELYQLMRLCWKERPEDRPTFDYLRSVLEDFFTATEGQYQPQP
Method: (§1) Kinase profiling of compound 17a at a concentration of 1 µM generated with the SelectScreen® Profiling Service from Life Technologies.
(§2) Figure S2. Kinase profiling of compound 17a, Illustration as waterfall plot. 9 Kinases harboring a Cysteine isostructural to Cys797 in EGFR are highlighted
(§3) Kinase % inhibition Kinase % inhibition […]
(§4) aValues are the mean ± SD of one measurement in duplicates; bKinases harboring a Cysteine isostructural to Cys797 […]
(§5) (1 picture or pasted object on this page, not shown here)

BTK = BTK (Homo sapiens, UniProt Q06187); assay: SelectScreen kinase profiling, BTK; assay type: biochemical; settings: mean ± SD of one measurement in duplicates
Sequence of BTK (Q06187 whole entry): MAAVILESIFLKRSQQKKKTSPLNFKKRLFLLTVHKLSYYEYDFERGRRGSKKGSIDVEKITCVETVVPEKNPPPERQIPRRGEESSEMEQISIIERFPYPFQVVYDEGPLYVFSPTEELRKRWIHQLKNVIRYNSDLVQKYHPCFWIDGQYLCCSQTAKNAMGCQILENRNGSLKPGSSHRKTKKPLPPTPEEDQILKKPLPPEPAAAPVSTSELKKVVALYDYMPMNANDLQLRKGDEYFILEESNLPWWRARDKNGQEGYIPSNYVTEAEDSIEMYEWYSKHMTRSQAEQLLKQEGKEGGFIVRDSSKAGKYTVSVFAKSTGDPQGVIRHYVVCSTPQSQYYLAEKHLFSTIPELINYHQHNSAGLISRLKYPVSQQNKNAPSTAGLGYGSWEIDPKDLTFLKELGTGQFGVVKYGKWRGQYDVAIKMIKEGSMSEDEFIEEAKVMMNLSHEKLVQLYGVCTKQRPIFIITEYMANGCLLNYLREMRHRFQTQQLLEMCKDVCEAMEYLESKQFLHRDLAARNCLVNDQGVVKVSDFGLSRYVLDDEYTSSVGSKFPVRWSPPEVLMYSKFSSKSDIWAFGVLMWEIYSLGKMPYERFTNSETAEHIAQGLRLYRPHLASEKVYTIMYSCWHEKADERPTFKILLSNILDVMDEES
Method: as §1, §2, §3, §4, §5

TXK = TXK (Homo sapiens, UniProt P42681); assay: SelectScreen kinase profiling, TXK; assay type: biochemical; settings: mean ± SD of one measurement in duplicates
Method: as §1, §2, §3, §4, §5

ABL1-Y253F = ABL1-Y253F (Homo sapiens, UniProt P00519, Y253F); assay: SelectScreen kinase profiling, ABL1-Y253F; assay type: biochemical; settings: mean ± SD of one measurement in duplicates
Method: as §1, §2, §3, §4, §5

FGR = FGR (Homo sapiens, UniProt P09769); assay: SelectScreen kinase profiling, FGR; assay type: biochemical; settings: mean ± SD of one measurement in duplicates
Method: as §1, §2, §3, §4, §5

EPHA1 = EPHA1 (Homo sapiens, UniProt P21709); assay: SelectScreen kinase profiling, EPHA1; assay type: biochemical; settings: mean ± SD of one measurement in duplicates
Method: as §1, §2, §3, §4, §5

ABL1-E255K = ABL1-E255K (Homo sapiens, UniProt P00519, E255K); assay: SelectScreen kinase profiling, ABL1-E255K; assay type: biochemical; settings: mean ± SD of one measurement in duplicates
Method: as §1, §2, §3, §4, §5

EGFR-T790M [3] = target: T2, EGFR-T790M; assay: SelectScreen kinase profiling, EGFR-T790M; assay type: biochemical; settings: mean ± SD of one measurement in duplicates
Method: as §1, §2, §3, §4, §5
Target sequence in this assay (P00533 25-1210 T790M): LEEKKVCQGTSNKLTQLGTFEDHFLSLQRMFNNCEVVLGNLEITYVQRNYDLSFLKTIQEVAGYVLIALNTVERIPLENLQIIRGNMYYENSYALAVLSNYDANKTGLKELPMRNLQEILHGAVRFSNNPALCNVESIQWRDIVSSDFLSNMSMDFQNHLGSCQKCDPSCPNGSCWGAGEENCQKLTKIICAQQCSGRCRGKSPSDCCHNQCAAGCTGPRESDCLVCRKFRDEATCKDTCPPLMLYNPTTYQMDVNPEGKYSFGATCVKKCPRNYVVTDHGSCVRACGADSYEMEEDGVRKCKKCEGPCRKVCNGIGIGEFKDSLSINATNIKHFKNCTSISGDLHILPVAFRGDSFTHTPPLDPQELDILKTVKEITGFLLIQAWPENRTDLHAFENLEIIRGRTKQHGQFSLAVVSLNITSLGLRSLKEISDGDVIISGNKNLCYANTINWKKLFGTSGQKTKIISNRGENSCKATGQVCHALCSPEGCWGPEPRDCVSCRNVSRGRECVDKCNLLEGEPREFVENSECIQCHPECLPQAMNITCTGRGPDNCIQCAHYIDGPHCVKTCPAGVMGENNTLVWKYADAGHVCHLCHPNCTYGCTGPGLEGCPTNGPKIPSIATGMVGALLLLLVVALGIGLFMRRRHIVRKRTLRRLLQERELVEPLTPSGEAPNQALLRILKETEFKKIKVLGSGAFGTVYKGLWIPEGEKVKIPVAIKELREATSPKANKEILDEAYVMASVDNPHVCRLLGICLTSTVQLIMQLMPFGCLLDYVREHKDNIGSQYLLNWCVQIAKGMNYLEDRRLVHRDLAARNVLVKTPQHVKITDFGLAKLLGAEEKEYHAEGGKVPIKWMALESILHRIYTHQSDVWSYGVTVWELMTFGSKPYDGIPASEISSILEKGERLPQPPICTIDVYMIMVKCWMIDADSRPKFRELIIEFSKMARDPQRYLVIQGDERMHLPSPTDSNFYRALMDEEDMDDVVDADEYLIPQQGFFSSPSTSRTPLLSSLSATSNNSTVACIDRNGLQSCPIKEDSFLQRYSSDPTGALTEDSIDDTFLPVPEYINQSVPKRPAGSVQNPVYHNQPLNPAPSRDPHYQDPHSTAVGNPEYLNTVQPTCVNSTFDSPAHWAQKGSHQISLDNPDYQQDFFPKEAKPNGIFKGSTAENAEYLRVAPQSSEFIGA

Her2 = Her2 (Homo sapiens, UniProt P04626); assay: SelectScreen kinase profiling, Her2; assay type: biochemical; settings: mean ± SD of one measurement in duplicates
Sequence of Her2 (P04626 23-1255): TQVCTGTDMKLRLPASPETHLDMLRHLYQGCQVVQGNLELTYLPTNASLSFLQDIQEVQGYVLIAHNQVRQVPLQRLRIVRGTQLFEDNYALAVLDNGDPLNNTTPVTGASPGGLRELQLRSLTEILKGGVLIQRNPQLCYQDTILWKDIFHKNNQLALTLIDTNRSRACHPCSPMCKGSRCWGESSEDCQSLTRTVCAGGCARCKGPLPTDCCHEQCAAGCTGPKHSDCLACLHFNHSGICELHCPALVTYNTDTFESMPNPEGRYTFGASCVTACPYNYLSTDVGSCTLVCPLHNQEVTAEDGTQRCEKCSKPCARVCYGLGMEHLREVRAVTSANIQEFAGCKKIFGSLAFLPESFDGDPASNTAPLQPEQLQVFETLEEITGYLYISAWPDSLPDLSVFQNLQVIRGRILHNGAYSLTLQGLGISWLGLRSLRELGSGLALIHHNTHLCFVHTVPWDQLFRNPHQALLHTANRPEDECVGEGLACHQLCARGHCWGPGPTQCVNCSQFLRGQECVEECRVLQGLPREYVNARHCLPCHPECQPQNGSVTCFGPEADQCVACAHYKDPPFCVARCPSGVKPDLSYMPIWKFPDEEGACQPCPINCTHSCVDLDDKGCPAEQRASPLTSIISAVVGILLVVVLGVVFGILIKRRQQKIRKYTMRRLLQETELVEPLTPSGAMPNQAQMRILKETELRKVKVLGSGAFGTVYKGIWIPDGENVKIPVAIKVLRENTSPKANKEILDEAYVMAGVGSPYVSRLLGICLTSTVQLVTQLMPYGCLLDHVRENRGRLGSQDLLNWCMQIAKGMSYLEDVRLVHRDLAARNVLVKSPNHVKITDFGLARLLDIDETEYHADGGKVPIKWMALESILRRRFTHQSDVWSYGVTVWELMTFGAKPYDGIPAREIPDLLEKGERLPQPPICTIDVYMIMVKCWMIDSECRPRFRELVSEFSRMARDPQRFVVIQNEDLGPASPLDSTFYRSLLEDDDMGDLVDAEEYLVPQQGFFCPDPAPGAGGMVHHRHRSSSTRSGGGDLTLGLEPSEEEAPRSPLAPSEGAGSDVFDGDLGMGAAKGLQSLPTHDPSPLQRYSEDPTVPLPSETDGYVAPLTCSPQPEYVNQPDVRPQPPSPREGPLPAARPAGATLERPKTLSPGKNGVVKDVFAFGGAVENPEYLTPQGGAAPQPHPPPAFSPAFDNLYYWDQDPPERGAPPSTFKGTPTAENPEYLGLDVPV
Method: as §1, §2, §3, §4, §5

ABL2 = ABL2 (Homo sapiens, UniProt P42684); assay: SelectScreen kinase profiling, ABL2; assay type: biochemical; settings: mean ± SD of one measurement in duplicates
Method: as §1, §2, §3, §4, §5

EGFR-L858R [4] = target: T1, EGFR-L858R; assay: SelectScreen kinase profiling, EGFR-L858R; assay type: biochemical; settings: mean ± SD of one measurement in duplicates
Method: as §1, §2, §3, §4, §5

BLK = BLK (Homo sapiens, UniProt P51451); assay: SelectScreen kinase profiling, BLK; assay type: biochemical; settings: mean ± SD of one measurement in duplicates
Method: as §1, §2, §3, §4, §5

T1 sequence (P00533 25-1210 L858R): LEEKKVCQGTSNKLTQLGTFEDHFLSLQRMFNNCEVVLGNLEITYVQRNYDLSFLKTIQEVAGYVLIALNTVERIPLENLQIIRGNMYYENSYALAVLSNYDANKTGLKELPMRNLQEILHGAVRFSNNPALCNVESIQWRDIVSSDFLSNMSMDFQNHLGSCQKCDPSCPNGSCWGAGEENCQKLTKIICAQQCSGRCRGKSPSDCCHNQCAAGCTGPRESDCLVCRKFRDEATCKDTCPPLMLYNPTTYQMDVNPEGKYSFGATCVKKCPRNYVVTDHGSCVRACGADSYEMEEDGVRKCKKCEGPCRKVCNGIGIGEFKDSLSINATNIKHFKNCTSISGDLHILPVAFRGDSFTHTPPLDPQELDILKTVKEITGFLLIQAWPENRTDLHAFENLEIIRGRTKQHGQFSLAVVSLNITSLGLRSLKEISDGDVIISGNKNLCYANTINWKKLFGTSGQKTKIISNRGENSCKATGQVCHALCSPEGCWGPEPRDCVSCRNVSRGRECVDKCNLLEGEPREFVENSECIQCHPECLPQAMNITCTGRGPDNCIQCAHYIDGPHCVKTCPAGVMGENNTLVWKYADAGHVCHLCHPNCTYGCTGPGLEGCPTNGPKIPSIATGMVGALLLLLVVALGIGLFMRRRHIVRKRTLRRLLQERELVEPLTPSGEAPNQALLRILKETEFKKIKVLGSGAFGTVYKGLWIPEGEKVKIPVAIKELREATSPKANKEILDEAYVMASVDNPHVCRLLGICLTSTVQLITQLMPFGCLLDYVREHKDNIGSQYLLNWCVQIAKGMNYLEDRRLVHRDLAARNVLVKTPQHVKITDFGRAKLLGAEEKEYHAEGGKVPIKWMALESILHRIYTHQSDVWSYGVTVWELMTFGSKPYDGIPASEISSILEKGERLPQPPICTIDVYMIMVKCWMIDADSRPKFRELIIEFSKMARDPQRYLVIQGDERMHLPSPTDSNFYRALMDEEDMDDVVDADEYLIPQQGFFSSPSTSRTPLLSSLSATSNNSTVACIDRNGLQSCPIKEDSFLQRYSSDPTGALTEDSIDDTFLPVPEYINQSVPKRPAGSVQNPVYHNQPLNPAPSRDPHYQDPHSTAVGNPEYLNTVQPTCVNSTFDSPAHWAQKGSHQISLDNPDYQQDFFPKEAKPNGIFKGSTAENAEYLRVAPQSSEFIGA

SMILES	Ki (EGFR-L858R [1]) [nM]	kinact (EGFR-L858R [1]) [s⁻¹]	kinact/KI (EGFR-L858R [1]) [M⁻¹ s⁻¹]	efflux ratio at 2 h, 5 µM (Caco-2 assay; Caco-2, pH 7.4, efflux ratio, read-out: Caco-2: ratio (BA) : (AB))	Papp A→B at 2 h, 5 μM (Caco-2 assay; Caco-2, apical to basolateral, 5 μM, pH 7.4, 2 hours, read-out: Caco-2: Papp AB) [×10⁻⁶ cm/s]	Papp B→A at 2 h, 5 μM (Caco-2 assay; Caco-2, basolateral to apical, 5 μM, pH 7.4, 2 hours, read-out: Caco-2: Papp BA) [×10⁻⁶ cm/s]	covalent labelling by tandem mass spectrometry (EGFR-T790M [2])	Plasma stability (Plasma stability, mouse) [%remain]	inhibition at 1 µM (LCK) [%]	inhibition at 1 µM (BTK) [%]	inhibition at 1 µM (TXK) [%]	inhibition at 1 µM (ABL1-Y253F) [%]	inhibition at 1 µM (FGR) [%]	inhibition at 1 µM (EPHA1) [%]	inhibition at 1 µM (ABL1-E255K) [%]	inhibition at 1 µM (EGFR-T790M [3]) [%]	inhibition at 1 µM (Her2) [%]	inhibition at 1 µM (ABL2) [%]	inhibition at 1 µM (EGFR-L858R [4]) [%]	inhibition at 1 µM (BLK) [%]
C=CC(=O)Nc1cccc(-c2c(-c3ccc(N4CCN(C)CC4)cc3)[nH]c3ncnc(OCC(C)C)c23)c1 [Compound 19h]	0.5 ± 0.1	0.00467	8.78e+06 ± 650000	3.1	1.2	3.6	specific single alkylation of Cys797	100	–	–	–	–	–	–	–	–	–	–	–	–
C=CC(=O)Nc1cccc(-c2c(-c3ccc(CN4CCN(C)CC4)cc3)[nH]c3ncnc(OC)c23)c1 [Compound 17a]	–	–	–	–	–	–	–	–	80	96 ± 1	77	94	92 ± 1	72 ± 2	86	89 ± 2	82 ± 6	86	89 ± 6	99 ± 1
